Test results: the NIST ThermoML archive (doi:10.1021/je8008254)
“And” between values parts separate entries of the source, which are not always exact repeats. Equal values may be shown once.

Assays:
[1] = for mass density / viscosity: 101 kPa, Liquid
[2] = xn = mol fraction of the nth substance listed; conditions: 101 kPa, Liquid

CCCCn1cc[n+](C)c1.N#C[S-] [1-butyl-3-methylimidazolium thiocyanate]
[1]
Conditions	mass density [kg/m3]	viscosity
298.15 K	1069.79	51.7 mPa·s
308.15 K	1063.89	34.9 mPa·s
318.15 K	1058.02	24.2 mPa·s
328.15 K	1052.19	16.7 mPa·s
338.15 K	1046.43	12.73 mPa·s and 12.7 mPa·s
348.15 K	1040.7	9.98 mPa·s

Conditions	Glass transition temperature [°C]
[1], Glass, DTA	-91.5

CCCCn1cc[n+](C)c1.N#C[S-] [1-butyl-3-methylimidazolium thiocyanate] + CCO
[2]
Conditions	mass density [kg/m3]	viscosity [mPa·s]
298.15 K, x1 = 0.0473	829.74	1.48
298.15 K, x1 = 0.1129	876.41	2.07
298.15 K, x1 = 0.1877	916.69	2.95
298.15 K, x1 = 0.2943	957.41	4.7
298.15 K, x1 = 0.3637	978.05	6.36
298.15 K, x1 = 0.5306	1014.59	11.7
298.15 K, x1 = 0.696	1039.72	19.7
298.15 K, x1 = 0.8114	1052.9	27.4
298.15 K, x1 = 0.9174	1062.78	36.2
298.15 K, x1 = 1	1069.79	51.7
308.15 K, x1 = 0.0473	821.61	1.23
308.15 K, x1 = 0.1129	868.74	1.71
308.15 K, x1 = 0.1877	909.46	2.41
308.15 K, x1 = 0.2943	950.56	3.77
308.15 K, x1 = 0.3637	971.37	4.95
308.15 K, x1 = 0.5306	1008.22	8.89
308.15 K, x1 = 0.696	1033.57	14.3
308.15 K, x1 = 0.8114	1046.84	19.2
308.15 K, x1 = 0.9174	1056.82	24.7
308.15 K, x1 = 1	1063.89	34.9
318.15 K, x1 = 0.0473	813.39	1.05
318.15 K, x1 = 0.1129	861.06	1.44
318.15 K, x1 = 0.1877	902.2	2.01
318.15 K, x1 = 0.2943	943.72	3.1
318.15 K, x1 = 0.3637	964.72	3.94
318.15 K, x1 = 0.5306	1001.9	7
318.15 K, x1 = 0.696	1027.47	10.9
318.15 K, x1 = 0.8114	1040.84	14.2
318.15 K, x1 = 0.9174	1050.88	17.8
318.15 K, x1 = 1	–	24.2
328.15 K, x1 = 0.0473	805.05	0.896
328.15 K, x1 = 0.1129	853.27	1.23
328.15 K, x1 = 0.1877	894.91	1.71
328.15 K, x1 = 0.2943	936.87	2.59
328.15 K, x1 = 0.3637	958.11	3.24
328.15 K, x1 = 0.5306	995.61	5.97
328.15 K, x1 = 0.696	1021.4	8.54
328.15 K, x1 = 0.8114	1034.86	10.9
328.15 K, x1 = 0.9174	1044.99	13.4
328.15 K, x1 = 1	1052.19	16.7
338.15 K, x1 = 0.0473	796.53	0.78
338.15 K, x1 = 0.1129	845.44	1.06
338.15 K, x1 = 0.1877	887.57	1.47
338.15 K, x1 = 0.2943	930.03	2.2
338.15 K, x1 = 0.3637	951.47	2.75
338.15 K, x1 = 0.5306	989.36	4.56
338.15 K, x1 = 0.696	1015.36	6.84
338.15 K, x1 = 0.8114	1028.95	8.64
338.15 K, x1 = 0.9174	1039.15	10.5
338.15 K, x1 = 1	1046.43	12.73
348.15 K, x1 = 0.0473	787.85	–
348.15 K, x1 = 0.1129	837.47	0.926
348.15 K, x1 = 0.1877	880.22	1.28
348.15 K, x1 = 0.2943	923.18	1.9
348.15 K, x1 = 0.3637	944.88	–
348.15 K, x1 = 0.5306	983.14	3.8
348.15 K, x1 = 0.696	1009.4	5.58
348.15 K, x1 = 0.8114	1023.05	7.01
348.15 K, x1 = 0.9174	1033.34	8.39
348.15 K, x1 = 1	1040.7	9.98

CCCCn1cc[n+](C)c1.N#C[S-] [1-butyl-3-methylimidazolium thiocyanate] + CO
[2]
Conditions	mass density, 298.15 K [kg/m3]	mass density, 308.15 K [kg/m3]	mass density, 318.15 K [kg/m3]	mass density, 328.15 K [kg/m3]	viscosity, 298.15 K [mPa·s]	viscosity, 308.15 K [mPa·s]	viscosity, 318.15 K [mPa·s]	viscosity, 328.15 K [mPa·s]
x1 = 0.0154	810	800.87	791.7	782.41	0.665	0.593	0.536	0.49
x1 = 0.0531	854.66	846.16	837.63	829.05	0.871	0.765	0.681	0.613
x1 = 0.0964	892.65	884.64	876.63	868.59	1.18	1.02	0.892	0.792
x1 = 0.1443	924.63	917.04	909.43	901.81	1.62	1.39	1.2	1.06
x1 = 0.2076	954.94	947.69	940.47	933.23	2.34	1.96	1.67	1.45
x1 = 0.3602	1001.45	994.74	988.06	981.43	5.15	4.13	3.33	2.82
x1 = 0.5083	1028.1	1021.68	1015.3	1008.99	9.75	7.55	6.03	4.85
x1 = 0.6227	1041.88	1035.64	1029.43	1023.26	14.5	10.8	8.4	6.68
x1 = 0.7114	1050.29	1044.13	1038.01	1031.94	19.4	14.1	10.7	8.4
x1 = 0.8006	1057.46	1051.39	1045.36	1039.38	25.4	18	13.4	10.32
x1 = 0.9046	1064.23	1058.22	1052.27	1046.37	34.1	23.3	16.9	12.78
x1 = 1	1069.79	1063.89	1058.02	1052.19	51.7	34.9	24.2	16.7

CCO [ethanol]
[1]
Conditions	mass density [kg/m3]	viscosity [mPa·s]
298.15 K	785.17	1.09
308.15 K	776.49	0.912
318.15 K	767.67	0.774
328.15 K	758.65	0.664
338.15 K	749.35	0.589
348.15 K	739.75	0.512

CCO [ethanol] + CCCCn1cc[n+](C)c1.N#C[S-]
[2], x2 = 0
Conditions	mass density [kg/m3]	viscosity [mPa·s]
298.15 K	785.17	1.09
308.15 K	776.49	0.912
318.15 K	767.67	0.774
328.15 K	758.65	0.664
338.15 K	749.35	0.589
348.15 K	739.75	0.512

CO [methanol]
[1]
Conditions	mass density [kg/m3]	viscosity [mPa·s]
298.15 K	786.64	0.577
308.15 K	777.15	0.525
318.15 K	767.59	0.481
328.15 K	757.83	0.443

CO [methanol] + CCCCn1cc[n+](C)c1.N#C[S-]
[2], x2 = 0
Conditions	mass density [kg/m3]	viscosity [mPa·s]
298.15 K	786.64	0.577
308.15 K	777.15	0.525
318.15 K	767.59	0.481
328.15 K	757.83	0.443

CCCO [propan-1-ol]
[1]
Conditions	mass density [kg/m3]	viscosity [mPa·s]
298.15 K	799.52	1.94
308.15 K	791.41	1.54
318.15 K	783.15	1.24
328.15 K	774.66	1.02
338.15 K	765.91	0.842
348.15 K	756.84	0.71

CCCO [propan-1-ol] + CCCCn1cc[n+](C)c1.N#C[S-]
[2], x2 = 0
Conditions	mass density [kg/m3]	viscosity [mPa·s]
298.15 K	799.52	1.94
308.15 K	791.41	1.54
318.15 K	783.15	1.24
328.15 K	774.66	1.02
338.15 K	765.91	0.842
348.15 K	756.84	0.71
